“And” between values parts separate entries of the source, which are not always exact repeats. Equal values may be shown once. Inconclusive results and toxic doses are left out.
System: L1210 leukemia ip in BDF1 mice, survival T/C
Test: NCI In Vivo Anticancer Drug Screen. Data for tumor model L1210 Leukemia (intraperitoneal) in B6D2F1 (BDF1) mice
Details: endpoint: mean survival time, higher = longer survival
Procedure, shortened: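 Transplanted-tumor mice were given test agent; controls received vehicle only. Survival readings from the two groups were divided (treated over control).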

[1] = dose: 100.0 mg/kg/injection, schedule: Q01DX001 (ip), vehicle: carboxymethylcellulose (CMC)
[2] = dose: 200.0 mg/kg/injection, schedule: Q01DX001 (ip), vehicle: carboxymethylcellulose (CMC)
[3] = dose: 400.0 mg/kg/injection, schedule: Q01DX001 (ip), vehicle: carboxymethylcellulose (CMC)
[4] = dose: 100.0 mg/kg/injection, schedule: Q01DX001 (ip), vehicle: Klucel (hydroxypropylcellulose) (HPC)
[5] = dose: 100.0 mg/kg/injection, schedule: Q04DX003 (ip), vehicle: Klucel (hydroxypropylcellulose) (HPC)
[6] = dose: 200.0 mg/kg/injection, schedule: Q04DX003 (ip), vehicle: Klucel (hydroxypropylcellulose) (HPC)
[7] = dose: 400.0 mg/kg/injection, schedule: Q04DX003 (ip), vehicle: Klucel (hydroxypropylcellulose) (HPC)
[8] = dose: 100.0 mg/kg/injection, schedule: Q04DX003 (ip), vehicle: saline
[9] = dose: 200.0 mg/kg/injection, schedule: Q04DX003 (ip), vehicle: saline
[10] = dose: 400.0 mg/kg/injection, schedule: Q04DX003 (ip), vehicle: saline
[11] = dose: 100.0 mg/kg/injection, schedule: Q04DX002 (ip), vehicle: saline
[12] = dose: 200.0 mg/kg/injection, schedule: Q04DX002 (ip), vehicle: saline
[13] = dose: 400.0 mg/kg/injection, schedule: Q04DX002 (ip), vehicle: saline
[14] = dose: 6.25 mg/kg/injection, schedule: Q04DX003 (ip), vehicle: saline with Tween-80
[15] = dose: 12.5 mg/kg/injection, schedule: Q04DX003 (ip), vehicle: saline with Tween-80
[16] = dose: 25.0 mg/kg/injection, schedule: Q04DX003 (ip), vehicle: saline with Tween-80
[17] = dose: 50.0 mg/kg/injection, schedule: Q04DX003 (ip), vehicle: saline

Structure (SMILES): CC(=O)Nc1c(Cl)c(Cl)c2c(c1Cl)C(=O)c1cc(Cl)ccc1-2
- T/C [1]: 92 % of control
- T/C (dose: 100.0 mg/kg/injection, schedule: Q01DX Z (ip), vehicle: carboxymethylcellulose (CMC)): 102 % of control
- T/C [2]: 90 % of control
- T/C (dose: 200.0 mg/kg/injection, schedule: Q01DX Z (ip), vehicle: carboxymethylcellulose (CMC)): 98 % of control
- T/C [3]: 95 % of control
- T/C (dose: 400.0 mg/kg/injection, schedule: Q01DX Z (ip), vehicle: carboxymethylcellulose (CMC)): 98 % of control
- T/C (dose: 800.0 mg/kg/injection, schedule: Q01DX Z (ip), vehicle: carboxymethylcellulose (CMC)): 102 % of control

Structure (SMILES): NC(=S)NNC(=O)c1ccncc1
- T/C (dose: 100.0 mg/kg/injection, schedule: Q01DX001 (ip), vehicle: saline): 96 % of control
- T/C (dose: 200.0 mg/kg/injection, schedule: Q01DX001 (ip), vehicle: saline): 96 % of control
- T/C (dose: 400.0 mg/kg/injection, schedule: Q01DX001 (ip), vehicle: saline): 91 % of control

Structure (SMILES): COC(=O)CN(c1c(C)cc(C)c(N)c1C)S(=O)(=O)c1ccccc1
- T/C [4]: 95 % of control
- T/C [5]: 96 % of control
- T/C (dose: 200.0 mg/kg/injection, schedule: Q01DX001 (ip), vehicle: Klucel (hydroxypropylcellulose) (HPC)): 103 % of control
- T/C [6]: 100 % of control
- T/C (dose: 400.0 mg/kg/injection, schedule: Q01DX001 (ip), vehicle: Klucel (hydroxypropylcellulose) (HPC)): 97 % of control
- T/C [7]: 107 % of control

Structure (SMILES): N#Cc1ccc[n+](Cc2ccc3c(c2)OCO3)c1
- T/C (dose: 75.0 mg/kg/injection, schedule: Q01DX001 (ip), vehicle: saline): 106 % of control
- T/C (dose: 150.0 mg/kg/injection, schedule: Q01DX001 (ip), vehicle: saline): 106 % of control

Structure (SMILES): Cc1c(C(=O)O)cc2n(c1=O)Cc1cc3ccccc3nc1-2
- T/C (dose: 100.0 mg/kg/injection, schedule: Q01DX009 (ip), vehicle: saline): 90 % of control
- T/C [8]: 95 % of control
- T/C (dose: 200.0 mg/kg/injection, schedule: Q01DX009 (ip), vehicle: saline): 86 % of control
- T/C [9]: 106 % of control
- T/C [10]: 98 % of control

Structure (SMILES): Cc1ccccc1-c1nc2c(N)nc(N)nc2nc1N
- T/C (dose: 25.25 mg/kg/injection, schedule: Q01DX Z (ip), vehicle: carboxymethylcellulose (CMC)): 104 % of control
- T/C (dose: 50.0 mg/kg/injection, schedule: Q01DX001 (ip), vehicle: carboxymethylcellulose (CMC)): 101 % of control
- T/C (dose: 50.5 mg/kg/injection, schedule: Q01DX Z (ip), vehicle: carboxymethylcellulose (CMC)): 106 % of control
- T/C (dose: 79.0 mg/kg/injection, schedule: Q04DX002 (ip), vehicle: Klucel (hydroxypropylcellulose) (HPC)): 111 % of control
- T/C [1]: 96 % of control
- T/C (dose: 118.0 mg/kg/injection, schedule: Q04DX002 (ip), vehicle: Klucel (hydroxypropylcellulose) (HPC)): 97 % of control
- T/C (dose: 180.0 mg/kg/injection, schedule: Q04DX002 (ip), vehicle: Klucel (hydroxypropylcellulose) (HPC)): 100 % of control
- T/C [2]: 104 % of control
- T/C (dose: 270.0 mg/kg/injection, schedule: Q04DX002 (ip), vehicle: Klucel (hydroxypropylcellulose) (HPC)): 111 % of control
- T/C [3]: 98 % of control
- T/C (dose: 500.0 mg/kg/injection, schedule: Q01DX Z (ip), vehicle: methylcellulose (MC)): 120 % of control
- T/C (dose: 750.0 mg/kg/injection, schedule: Q01DX Z (ip), vehicle: methylcellulose (MC)): 114 % of control
- T/C (dose: 1000.0 mg/kg/injection, schedule: Q01DX Z (ip), vehicle: methylcellulose (MC)): 101 % of control

Structure (SMILES): Cc1nonc1C(=O)O
- T/C [11]: 102 % of control
- T/C [12]: 87 % of control
- T/C [13]: 98 % of control

Structure (SMILES): O=C(CCCCCCCCC(=O)OCc1ccccc1)OCc1ccccc1
- T/C [11]: 96 % of control
- T/C [12]: 88 % of control
- T/C [13]: 100 % of control

Structure (SMILES): COC(=O)c1csc(CCN)n1
- T/C [8]: 102 % of control
- T/C [9]: 94 % of control
- T/C [10]: 97 % of control

Structure (SMILES): CC(=O)OCC(NC(=O)N(CCCl)N=O)C(OC(C)=O)C(OC(C)=O)C(COC(C)=O)OC(C)=O (stereo not given)
- T/C (dose: 9.0 mg/kg/injection, schedule: Q01DX001 (ip), vehicle: saline + alcohol): 266 % of control
- T/C (dose: 13.0 mg/kg/injection, schedule: Q01DX001 (ip), vehicle: saline + alcohol): 179 % of control
- T/C (dose: 20.0 mg/kg/injection, schedule: Q01DX001 (ip), vehicle: saline + alcohol): 282 % of control

Structure (SMILES): C/C=C/CC1(CCC(C)C)C(=O)NC(=O)NC1=O
- T/C (dose: 75.0 mg/kg/injection, schedule: Q01DX001 (ip), vehicle: acetone): 95 % of control
- T/C (dose: 75.0 mg/kg/injection, schedule: Q01DX001 (ip), vehicle: other): 101 % of control
- T/C (dose: 150.0 mg/kg/injection, schedule: Q01DX001 (ip), vehicle: acetone): 101 % of control
- T/C (dose: 150.0 mg/kg/injection, schedule: Q01DX001 (ip), vehicle: other): 101 % of control
- T/C (dose: 300.0 mg/kg/injection, schedule: Q01DX001 (ip), vehicle: other): 105 % of control

Structure (SMILES): CCCCCCCCCCCc1n(Cc2ccccc2)cc[n+]1C
- T/C (dose: 0.5 mg/kg/injection, schedule: Q01DX001 (ip), vehicle: saline): 101 % of control
- T/C (dose: 0.5 mg/kg/injection, schedule: Q01DX009 (ip), vehicle: acetone): 111 % of control
- T/C (dose: 1.0 mg/kg/injection, schedule: Q01DX001 (ip), vehicle: saline): 95 % of control
- T/C (dose: 1.0 mg/kg/injection, schedule: Q01DX009 (ip), vehicle: acetone): 118 % of control
- T/C (dose: 2.0 mg/kg/injection, schedule: Q01DX001 (ip), vehicle: saline): 101 % of control
- T/C (dose: 2.0 mg/kg/injection, schedule: Q04DX003 (ip), vehicle: saline): 95 % of control
- T/C (dose: 8.0 mg/kg/injection, schedule: Q01DX001 (ip), vehicle: saline): 103 % of control

Structure (SMILES): c1ccc(C[n+]2ccc3ccccc3c2)cc1
- T/C (dose: 6.25 mg/kg/injection, schedule: Q01DX009 (ip), vehicle: saline with Tween-80): 95 % of control
- T/C [14]: 107 % of control
- T/C (dose: 10.0 mg/kg/injection, schedule: Q04DX003 (ip), vehicle: saline): 105 % of control
- T/C (dose: 12.5 mg/kg/injection, schedule: Q01DX009 (ip), vehicle: saline with Tween-80): 103 % of control
- T/C (dose: 12.5 mg/kg/injection, schedule: Q01DX009 (ip), vehicle: saline): 112 % of control
- T/C [15]: 98 % of control
- T/C (dose: 20.0 mg/kg/injection, schedule: Q04DX003 (ip), vehicle: saline): 92 % of control
- T/C (dose: 25.0 mg/kg/injection, schedule: Q01DX009 (ip), vehicle: saline with Tween-80): 111 % of control
- T/C (dose: 25.0 mg/kg/injection, schedule: Q01DX009 (ip), vehicle: saline): 107 % of control
- T/C [16]: 91 % of control
- T/C (dose: 40.0 mg/kg/injection, schedule: Q04DX003 (ip), vehicle: saline): 94 % of control
- T/C (dose: 50.0 mg/kg/injection, schedule: Q01DX009 (ip), vehicle: saline): 104 % of control
- T/C [17]: 95 % of control

Structure (SMILES): NC(N)=NCCCCCCN=C(N)N
- T/C (dose: 6.25 mg/kg/injection, schedule: Q01DX Z (oral), vehicle: saline): 106 % of control
- T/C [14]: 100 % of control
- T/C (dose: 12.5 mg/kg/injection, schedule: Q01DX Z (oral), vehicle: saline): 103 % of control
- T/C [15]: 100 % of control
- T/C (dose: 25.0 mg/kg/injection, schedule: Q01DX Z (oral), vehicle: saline): 103 % of control
- T/C [16]: 99 % of control and 101 % of control

Structure (SMILES): Cc1ccc(NC(=O)Nc2c(C)n(C)n(-c3ccccc3)c2=O)c([N+](=O)[O-])c1
- T/C [5]: 94 % of control
- T/C [6]: 91 % of control
- T/C [7]: 91 % of control

Structure (SMILES): N#C/C(N)=C(\C#N)N=CC=N/C(C#N)=C(/N)C#N
- T/C (dose: 12.5 mg/kg/injection, schedule: Q01DX009 (ip), vehicle: Klucel (hydroxypropylcellulose) (HPC)): 103 % of control
- T/C (dose: 25.0 mg/kg/injection, schedule: Q01DX009 (ip), vehicle: Klucel (hydroxypropylcellulose) (HPC)): 103 % of control
- T/C (dose: 50.0 mg/kg/injection, schedule: Q01DX009 (ip), vehicle: Klucel (hydroxypropylcellulose) (HPC)): 103 % of control
- T/C [4]: 95 % of control

Structure (SMILES): O=C1NC2(CCCCC2)C(=O)N1CCCl
- T/C [17]: 101 % of control
- T/C [8]: 109 % of control
- T/C [9]: 106 % of control
- T/C [10]: 101 % of control

From PubChem BioAssay AID248 (DTP/NCI, 2004)
